Test results: PMC6199744, “Development of Chemical Proteomics for the Folateome and Analysis of the Kinetoplastid Folateome” (ACS Infectious Diseases, 2018)
Where two headings read alike, the source gives them in different places.

Key:
Format in all cases: binding
[1] = target: T1, HeLa cell extract proteins (Homo sapiens, UniProt Q15120)
T1 construct: endogenous in cells; host or cells: HeLa cell extract

[2] = target: T2, HeLa cell extract proteins (Homo sapiens, UniProt Q9Y265)
T2 construct: endogenous in cells; host or cells: HeLa cell extract
T2 sequence (Q9Y265 whole entry): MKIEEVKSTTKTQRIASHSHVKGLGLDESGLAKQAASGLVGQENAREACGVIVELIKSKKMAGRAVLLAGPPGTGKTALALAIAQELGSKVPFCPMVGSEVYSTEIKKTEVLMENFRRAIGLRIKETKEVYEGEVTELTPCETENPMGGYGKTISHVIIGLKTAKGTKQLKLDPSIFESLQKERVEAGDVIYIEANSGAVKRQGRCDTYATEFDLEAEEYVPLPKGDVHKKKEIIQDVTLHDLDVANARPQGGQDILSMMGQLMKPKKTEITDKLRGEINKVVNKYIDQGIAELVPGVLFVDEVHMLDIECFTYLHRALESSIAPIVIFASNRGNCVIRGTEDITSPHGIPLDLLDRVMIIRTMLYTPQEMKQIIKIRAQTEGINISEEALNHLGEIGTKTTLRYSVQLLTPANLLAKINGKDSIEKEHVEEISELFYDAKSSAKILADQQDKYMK

[3] = target: T3, HeLa cell extract proteins (Homo sapiens, UniProt Q15067)
T3 construct: endogenous in cells; host or cells: HeLa cell extract
T3 sequence (Q15067 1-660): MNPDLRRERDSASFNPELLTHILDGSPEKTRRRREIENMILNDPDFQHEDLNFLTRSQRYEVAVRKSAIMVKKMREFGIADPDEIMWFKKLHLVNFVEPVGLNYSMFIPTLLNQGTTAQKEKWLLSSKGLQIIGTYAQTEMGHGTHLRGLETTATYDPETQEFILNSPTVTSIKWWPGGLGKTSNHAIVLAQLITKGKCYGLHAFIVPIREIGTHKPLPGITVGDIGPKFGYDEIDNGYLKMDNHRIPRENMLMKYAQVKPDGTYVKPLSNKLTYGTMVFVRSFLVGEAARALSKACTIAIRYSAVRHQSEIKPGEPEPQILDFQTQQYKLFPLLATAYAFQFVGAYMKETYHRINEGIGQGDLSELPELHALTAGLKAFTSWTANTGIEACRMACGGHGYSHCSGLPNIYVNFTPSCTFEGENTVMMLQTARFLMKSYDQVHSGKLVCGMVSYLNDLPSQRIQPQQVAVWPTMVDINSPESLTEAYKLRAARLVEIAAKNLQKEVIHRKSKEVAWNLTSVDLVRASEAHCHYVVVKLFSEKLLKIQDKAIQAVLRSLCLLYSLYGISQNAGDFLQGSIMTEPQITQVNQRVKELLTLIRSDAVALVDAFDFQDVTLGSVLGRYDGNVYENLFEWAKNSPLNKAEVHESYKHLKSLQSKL

[4] = target: T4, HeLa cell extract proteins (Homo sapiens, UniProt Q53R41)
T4 construct: endogenous in cells; host or cells: HeLa cell extract
T4 sequence (Q53R41 1-847): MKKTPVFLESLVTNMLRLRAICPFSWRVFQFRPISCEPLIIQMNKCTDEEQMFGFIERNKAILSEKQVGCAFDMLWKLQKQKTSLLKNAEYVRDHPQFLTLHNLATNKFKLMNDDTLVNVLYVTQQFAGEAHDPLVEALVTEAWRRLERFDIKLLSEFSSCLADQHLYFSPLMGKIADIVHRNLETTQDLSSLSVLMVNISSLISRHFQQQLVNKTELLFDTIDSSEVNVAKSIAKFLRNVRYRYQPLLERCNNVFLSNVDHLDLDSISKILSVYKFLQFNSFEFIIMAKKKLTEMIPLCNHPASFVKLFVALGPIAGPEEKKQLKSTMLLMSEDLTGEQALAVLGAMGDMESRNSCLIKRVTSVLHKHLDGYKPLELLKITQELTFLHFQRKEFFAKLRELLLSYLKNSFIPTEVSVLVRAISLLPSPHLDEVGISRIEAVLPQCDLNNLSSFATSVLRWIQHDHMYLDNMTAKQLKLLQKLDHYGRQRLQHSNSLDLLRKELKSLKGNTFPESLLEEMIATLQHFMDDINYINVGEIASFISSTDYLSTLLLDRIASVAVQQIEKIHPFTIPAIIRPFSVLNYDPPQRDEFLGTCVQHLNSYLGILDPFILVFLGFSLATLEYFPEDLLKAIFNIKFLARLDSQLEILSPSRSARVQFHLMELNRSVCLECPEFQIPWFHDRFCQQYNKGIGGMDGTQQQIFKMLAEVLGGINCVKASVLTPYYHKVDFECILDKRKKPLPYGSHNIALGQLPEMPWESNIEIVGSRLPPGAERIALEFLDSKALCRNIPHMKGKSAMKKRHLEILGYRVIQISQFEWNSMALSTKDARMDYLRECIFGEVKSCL

[5] = target: T5, HeLa cell extract proteins (Homo sapiens, UniProt O43143)
T5 construct: endogenous in cells; host or cells: HeLa cell extract
T5 sequence (O43143 whole entry): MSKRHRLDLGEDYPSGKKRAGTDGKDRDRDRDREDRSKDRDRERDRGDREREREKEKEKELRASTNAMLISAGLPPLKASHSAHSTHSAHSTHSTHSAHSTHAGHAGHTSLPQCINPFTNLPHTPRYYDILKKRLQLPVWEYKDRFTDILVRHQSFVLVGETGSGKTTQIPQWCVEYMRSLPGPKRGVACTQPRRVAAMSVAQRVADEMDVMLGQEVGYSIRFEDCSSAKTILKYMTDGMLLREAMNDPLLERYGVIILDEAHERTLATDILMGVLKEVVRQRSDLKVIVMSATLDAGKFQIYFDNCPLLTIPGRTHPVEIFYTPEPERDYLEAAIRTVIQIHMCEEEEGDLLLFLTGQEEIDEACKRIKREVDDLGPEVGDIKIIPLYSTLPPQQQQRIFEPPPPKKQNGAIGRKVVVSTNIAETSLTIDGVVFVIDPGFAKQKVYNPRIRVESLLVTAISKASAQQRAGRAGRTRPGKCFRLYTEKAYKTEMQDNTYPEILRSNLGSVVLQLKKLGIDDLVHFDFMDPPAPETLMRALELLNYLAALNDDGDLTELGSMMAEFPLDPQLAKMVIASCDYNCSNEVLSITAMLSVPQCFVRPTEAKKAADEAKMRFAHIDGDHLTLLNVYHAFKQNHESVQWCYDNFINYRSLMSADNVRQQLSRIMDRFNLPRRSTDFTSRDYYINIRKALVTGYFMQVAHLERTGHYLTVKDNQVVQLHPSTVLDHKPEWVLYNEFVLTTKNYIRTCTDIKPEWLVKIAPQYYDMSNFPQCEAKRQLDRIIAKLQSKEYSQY

[6] = target: T6, HeLa cell extract proteins (Homo sapiens, UniProt P25787)
T6 construct: endogenous in cells; host or cells: HeLa cell extract
T6 sequence (P25787 1-234): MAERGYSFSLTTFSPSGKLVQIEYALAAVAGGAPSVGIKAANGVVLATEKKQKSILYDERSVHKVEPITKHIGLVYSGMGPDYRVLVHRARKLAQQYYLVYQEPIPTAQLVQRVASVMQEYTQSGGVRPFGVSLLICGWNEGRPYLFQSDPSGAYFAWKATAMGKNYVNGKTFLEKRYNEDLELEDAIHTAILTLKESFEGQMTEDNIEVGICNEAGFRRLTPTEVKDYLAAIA

[7] = target: T7, HeLa cell extract proteins (Homo sapiens, UniProt P09622)
T7 construct: endogenous in cells; host or cells: HeLa cell extract
T7 sequence (P09622 36-509): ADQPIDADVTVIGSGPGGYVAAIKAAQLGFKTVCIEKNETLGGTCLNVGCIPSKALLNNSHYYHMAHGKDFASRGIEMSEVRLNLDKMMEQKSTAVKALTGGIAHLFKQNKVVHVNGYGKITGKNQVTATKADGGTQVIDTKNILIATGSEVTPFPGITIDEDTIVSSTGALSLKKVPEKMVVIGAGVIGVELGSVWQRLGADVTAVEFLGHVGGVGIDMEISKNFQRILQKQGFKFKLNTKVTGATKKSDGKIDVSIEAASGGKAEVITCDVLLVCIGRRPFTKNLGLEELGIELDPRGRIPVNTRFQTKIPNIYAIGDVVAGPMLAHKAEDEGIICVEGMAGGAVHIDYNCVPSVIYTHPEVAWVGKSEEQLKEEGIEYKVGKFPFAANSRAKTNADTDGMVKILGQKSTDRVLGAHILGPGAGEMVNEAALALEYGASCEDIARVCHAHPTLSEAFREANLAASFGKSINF

T1 sequence (Q15120 whole entry): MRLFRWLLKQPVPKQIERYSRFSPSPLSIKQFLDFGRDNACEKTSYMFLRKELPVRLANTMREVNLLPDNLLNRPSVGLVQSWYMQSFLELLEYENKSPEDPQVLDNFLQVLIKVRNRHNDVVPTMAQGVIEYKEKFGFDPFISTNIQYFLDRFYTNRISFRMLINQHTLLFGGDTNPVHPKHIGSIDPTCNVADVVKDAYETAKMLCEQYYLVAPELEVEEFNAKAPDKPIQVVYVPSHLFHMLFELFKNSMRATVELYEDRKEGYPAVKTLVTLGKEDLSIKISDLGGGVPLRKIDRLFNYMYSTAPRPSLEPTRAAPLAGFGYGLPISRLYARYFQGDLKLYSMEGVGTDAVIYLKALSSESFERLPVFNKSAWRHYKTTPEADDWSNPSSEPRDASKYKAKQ

| Structure (SMILES) | fold changes relative to vehicle control ([1]; captured protein PDK3, HeLa) | fold changes relative to vehicle control ([2]; protein RUVBL1, HeLa) | fold changes relative to vehicle control ([3]; HeLa, protein ACOX1) | fold changes relative to vehicle control ([4]; captured protein FASTKD1, HeLa) | fold changes relative to vehicle control ([5]; captured protein DHX15, HeLa) | fold changes relative to vehicle control ([6]; protein PSMA2, HeLa) | fold changes relative to vehicle control ([7]; HeLa, protein DLD) | fold changes relative to vehicle control ([1]; HeLa, protein PDK3) | fold changes relative to vehicle control ([2]; HeLa, protein RUVBL1) | fold changes relative to vehicle control ([4]; HeLa, protein FASTKD1) | fold changes relative to vehicle control ([5]; protein DHX15, HeLa) | fold changes relative to vehicle control ([6]; HeLa, captured protein PSMA2) | fold changes relative to vehicle control ([7]; HeLa, captured protein DLD) | fold changes relative to vehicle control [1] | fold changes relative to vehicle control [2] | fold changes relative to vehicle control [3] | fold changes relative to vehicle control [4] | fold changes relative to vehicle control [5] | fold changes relative to vehicle control [6] | fold changes relative to vehicle control [7] |
| --- | --- | --- | --- | --- | --- | --- | --- | --- | --- | --- | --- | --- | --- | --- | --- | --- | --- | --- | --- | --- |
| Nc1nc2cccc(-c3ccccc3)c2n1Cc1ccc(Cl)c(Cl)c1 [compound 3] | 0.86 | 1.04 | 1.33 | 0.98 | 0.62 | 0.95 | 1.01 | – | – | – | – | – | – | – | – | – | – | – | – | – |
| CCCCCCOc1ccc(Cc2cnc(N)nc2N)cc1 [compound 1] | 1 | 1.32 | 0.98 | 0.96 | 0.71 | 1.14 | 0.96 | – | – | – | – | – | – | – | – | – | – | – | – | – |
| NCCCNc1ccc(C(=O)NC(CCC(=O)O)C(=O)O)cc1 (stereo not shown) [compound 7] | – | – | 0.94 | – | – | – | – | 0.99 | 1.2 | 0.84 | 0.75 | 1.02 | 1.03 | – | – | – | – | – | – | – |
| CCCCCCOc1cccc(Cc2cnc(N)nc2N)c1 [compound 2] | 0.49 | 1.47 | 0.92 | 1.08 | 0.9 | 1.17 | 0.42 | – | – | – | – | – | – | – | – | – | – | – | – | – |
| NCCOCCOCC(=O)Nc1nc2ncc(CNc3ccc(C(=O)NC(CCC(=O)O)C(=O)O)cc3)nc2c(=O)[nH]1 (stereo not shown) [compound 6] | – | – | 0.99 | – | – | – | – | 0.87 | 1.07 | 0.87 | 0.83 | 1.05 | 0.99 | – | – | – | – | – | – | – |
| Nc1nc2[nH]cc(CCc3ccc(C(=O)N[C@@H](CCC(=O)O)C(=O)O)cc3)c2c(=O)[nH]1 [PTX, pemetrexed] | – | – | – | – | – | – | – | – | – | – | – | – | – | 0.9 | 0.92 | 0.95 | 0.83 | 0.71 | 1.02 | 0.96 |
| Nc1nc2c(c(=O)[nH]1)N(C=O)C(CNc1ccc(C(=O)N[C@@H](CCC(=O)O)C(=O)O)cc1)CN2 (stereo partly shown) [LEU, leucovorin] | – | – | 1 | – | – | – | – | 0.93 | 1.06 | 0.85 | 0.74 | 0.98 | 1.01 | – | – | – | – | – | – | – |
